ChEMBL document CHEMBL1150801, “Efficacy of fluoroquinolones against Leptospira interrogans in a hamster model” (Antimicrob Agents Chemother, 2007)
Activity calls are given as the source filed them. No cut-off for these calls is given here.

What was measured:
[1] = test system: Leptospira interrogans serovar Portlandvere; experiment: Antimicrobial activity against Leptospira interrogans serovar Portlandvere infected golden Syrian hamster model of acute lethal leptospirosis assessed as survival at 5 mg/kg/day, ip once daily for 5 days administered 2 day after infection; assay type: functional; details: for survival at 5 mg/kg/day: route intraperitoneal
[2] = test system: Leptospira interrogans serovar Portlandvere; experiment: Antimicrobial activity against Leptospira interrogans serovar Portlandvere infected golden Syrian hamster model of acute lethal leptospirosis assessed as survival at 50 mg/kg/day, ip once daily for 5 days administered 2 day after infection; assay type: functional; details: route intraperitoneal
[3] = test system: Leptospira interrogans serovar Portlandvere; experiment: Antimicrobial activity against Leptospira interrogans serovar Portlandvere infected golden Syrian hamster model of acute lethal leptospirosis assessed as survival at 25 mg/kg/day, ip once daily for 5 days administered 2 day after infection; assay type: functional; details: route intraperitoneal
[4] = test system: Syrian golden hamster; experiment: Toxicity against Leptospira interrogans serovar Portlandvere infected golden Syrian hamster model of acute lethal leptospirosis assessed as induction of diarrhea at 50 mg/kg/day, ip once daily for 5 days administered 2 day after infection; assay type: organism-based, Mesocricetus auratus; set-up: route intraperitoneal; details: in vivo

Compound | Activity [1] | survival at 50 mg/kg/day [2] | survival at 25 mg/kg/day [3] | survival at 5 mg/kg/day [1] | Activity [4]
C[C@H]1c2cccc(O)c2C(=O)C2=C(O)[C@]3(O)C(=O)C(C(N)=O)=C(O)[C@@H](N(C)C)[C@@H]3[C@@H](O)[C@@H]21 | Active | – | – | – | –
O=C(O)c1cn(C2CC2)c2cc(N3CCNCC3)c(F)cc2c1=O [CIPROFLOXACIN] | Active | 90% | 60% | – | –
COc1c(N2CCNC(C)C2)c(F)cc2c(=O)c(C(=O)O)cn(C3CC3)c12 (stereo unspecified) [GATIFLOXACIN] | – | 60% | 100% | 90% | Toxic
C[C@H]1COc2c(N3CCN(C)CC3)c(F)cc3c(=O)c(C(=O)O)cn1c23 [LEVOFLOXACIN] | – | 95% | 95% | 40% | –
